# Measured values reported in patent US10004816B2, “X-ray imaging contrast media with low iodine concentration and X-ray imaging process” (GE HEALTHCARE AS, priority 2012, dated 2018).
# Tests used:
# [1] = Average cluster size in solution; format: physicochemical
# Text: By intermolecular interactions the contrast media molecules form clusters that are continuously formed and broken up and the average cluster size may be described by a formation/destruction equilibrium. Ioforminol has an increased tendency to form clusters and in water at high concentration an average size of 4 molecules per cluster is predominating, whereas Iodixanol under similar conditions have a mean cluster size of 2.5 molecules. […] The cluster size affects the osmolality of the solution and larger clusters are reflected in a lower osmolality. The non-ideal behaviour of high concentration solutions permits the addition of physiological electrolytes to achieve isotonicity. […] This non-ideal behaviour persistent also at low concentrations enables the addition of physiological electrolytes to the current formulations.
# [2] = Liver signal to noise ratio (SNR), venous phase contrast enhanced abdominal CT; format: in vivo, minipig; settings: for FBP [SNR]: 320 mg I/ml, 120 kVp, SoC
# Procedure: (§1) Three studies were carried out in two anaesthetized minipigs (abdominal maximum and minimum diameters approximately 36 cm and 20 cm, respectively). Minipigs were imaged on a Discovery CT 750 HD. Compositions of 160 mg I/ml and 200 mg I/ml Ioforminol were prepared. The 160 mg I/ml formulation included a sodium concentration of 82 mM and a calcium concentration of 0.9 mM. The 200 mg I/ml formulation included a sodium concentration of 73 mM and a calcium concentration of 0.8 mM. For human formulations the calcium concentration is likely to be slightly lower, providing an optimized Na/Ca ratio of 110-120. The Ioforminol formulations (2 ml/kg) were injected at a rate of 2 ml/s into a jugular vein, followed by a 20 ml saline flush at the same injection rate.
# (§2) For comparison, Ioforminol at a concentration of 320 mg I/ml and 120 kVp tube voltage was administered to represent the current standard of care (SoC) imaging in man. SoC scans were compared to scans performed with either […] or 200 mg I/ml contrast concentration in the same pig, with at least a 2 day washout period between each scanning session. Automated tube current modulation was used with a noise index level of 23 (SoC) and a tube rotation time of 0.7 s. Post-contrast CT images were acquired during the arterial phase, the portal venous phase, the venous phase and the late phase. Image reconstruction was done by (1) FBP, (2) ASiR 60% and (3) Veo. Pixel size was 0.703 mm×0.703 mm×2.5 mm.
# (§3) Iodine contrast enhancement was assessed by measuring the mean x-ray attenuation values (in HUs) within circular region of interests (ROIs). ROIs were placed in both aorta and muscle (quadratus lumborum) in arterial phase images and in the liver in venous phase images. See Tables 1-6 and corresponding FIGS. 1-6. The aorta contrast to noise ratio (CNR) was calculated as the difference in signal between the aorta and muscle, divided by the noise in muscle. The liver signal to noise ratio (SNR) was calculated as the ratio of the mean liver attenuation and the standard deviation (SD).
# [3] = Viscosity of Ioforminol compositions; format: physicochemical; settings: 20° C.
# Procedure: For X-ray diagnostic compositions which are administered by injection or infusion, the desired upper limit for the solution's viscosity at ambient temperature (20° C.) is generally about 30 mPas, however viscosities of up to 50 to 60 mPas and even more than 60 mPas are seen. With the low concentration of iodine in the composition of the invention the viscosity is below 10 mPas at 20° C., and this is even considerably lower at the lower end of the iodine concentration range. […] For comparison a 320 mg I/ml composition of Ioforminol has a viscosity of 28 mPas (at 20° C.). Particularly, for a 160 mg I/ml composition of Ioforminol the viscosity is only 2.9 mPas (at 20° C.), and for a 200 mg I/ml composition the viscosity is 4.7 mPas (20° C.). […] Such low viscosity has the advantage that the composition is easy to administer and the administration can be done more quickly with a higher volume per time unit, particularly as the injection pressure needed is considerably lower than with compositions with higher viscosities. The lower viscosity enables a reduction in the needle- or catheter diameter down to about 63% of the original diameter without effecting flow rate or injection pressure. As a consequence a hand-held syringe can be used rather than an autoinjector.
# [4] = Aorta contrast to noise ratio (CNR), arterial phase contrast enhanced abdominal CT; format: in vivo, minipig; settings: for FBP [CNR]: 320 mg I/ml, 120 kVp, SoC
# Procedure: as §1, §2, §3
# [5] = 160 mg I/ml, 80 kVp, CTDIvol 5.2 mGy, FIG. 5
# [6] = 200 mg I/ml, 80 kVp, CTDIvol 6.9 mGy, FIG. 4
# [7] = 200 mg I/ml, 100 kVp, CTDIvol 5.2 mGy, FIG. 6
# [8] = 160 mg I/ml, 80 kVp, CTDIvol 5.2 mGy, FIG. 2
# [9] = 200 mg I/ml, 80 kVp, CTDIvol 6.9 mGy, FIG. 1
# [10] = 200 mg I/ml, 100 kVp, CTDIvol 5.2 mGy, FIG. 3
structure (smiles),measurement,setting,value
"O=CN(CC(O)CN(C=O)c1c(I)c(C(=O)NCC(O)CO)c(I)c(C(=O)NCC(O)CO)c1I)c1c(I)c(C(=O)NCC(O)CO)c(I)c(C(=O)NCC(O)CO)c1I (centres unmarked) [Ioforminol, 5,5′-((2-hydroxypropane-1,3-diyl)bis(formylazanediyl))bis(N1,N3-bis(2,3-dihydroxypropyl)-2,4,6-triiodoisophthalamide)]",average cluster size,[1]; in water at high concentration,4 molecules per cluster
same,average cluster size,[1]; low concentrations,2-3 molecules per cluster
same,ASiR 60% [SNR],[2]; [5],7.7
same,Veo [SNR],[2]; [5],15.1
same,ASiR 60% [SNR],[2]; [6],9.5
same,Veo [SNR],[2]; [6],16.7
same,ASiR 60% [SNR],[2]; [7],7.9
same,Veo [SNR],[2]; [7],13.1
same,FBP [SNR],"[2]; CTDIvol 7.4 mGy, FIG. 5 and 6",8.2
same,FBP [SNR],"[2]; CTDIvol 9.8 mGy, FIG. 4",7.7
same,viscosity,[3]; 160 mg I/ml composition,2.9 mPas
same,viscosity,[3]; 200 mg I/ml composition,4.7 mPas
same,viscosity,[3]; 320 mg I/ml composition,28 mPas
same,ASiR 60% [CNR],[4]; [8],15.1
same,Veo [CNR],[4]; [8],32.1
same,ASiR 60% [CNR],[4]; [9],23
same,Veo [CNR],[4]; [9],46.7
same,ASiR 60% [CNR],[4]; [10],17.7
same,Veo [CNR],[4]; [10],33.2
same,FBP [CNR],"[4]; CTDIvol 7.4 mGy, FIG. 2 and 3",16.9
same,FBP [CNR],"[4]; CTDIvol 9.8 mGy, FIG. 1",17.7
"CC(=O)N(CC(O)CN(C(C)=O)c1c(I)c(C(=O)NCC(O)CO)c(I)c(C(=O)NCC(O)CO)c1I)c1c(I)c(C(=O)NCC(O)CO)c(I)c(C(=O)NCC(O)CO)c1I (centres unmarked) [Iodixanol, iodixanol, reference compound]",average cluster size,[1]; in water at high concentration,2.5 molecules per cluster
same,average cluster size,[1]; low concentrations,no longer present
